Measurements: patent publication US20040176474A1 (priority 2003, published 2004)

Assays:
[1] = Adiabatic compression test; format: physicochemical
Method: Adiabatic Compression Test
This test determines the initiation sensitivity of the material to sudden gas compression, such as liquid inertia compressing entrained gas bubbles during transportation or hydrostatic pressure heads which form when pumping liquid or opening and closing valves. The test is performed with a plunger to rapidly compress gas from a drop height of at least 100 cm within a cylindrical chamber containing the sample. Energy is delivered to the plunger with a drop weight. A failed test is one in which any smoke, discoloration, char, spark or audible report result from the test. Neat propargyl bromide and the single solvent formulation pass the test at drop height of 150 cm in nitrogen and fail the test in air at drop heights of 100 cm and 150 cm.

[2] = UN Test Series 3 overall conclusion; format: physicochemical; conditions: sensitivity for transportation
From the text: UN Test Series 3: Drop Impact
Conclusion of UN Tests Series 3 Results:

C#CCBr [neat propargyl bromide, 3-bromopropyne]
Adiabatic compression test result (pass/fail) ([1]; drop height of 150 cm in nitrogen): pass | Adiabatic compression test result (pass/fail) ([1]; in air at drop heights of 100 cm and 150 cm): fail | UN Test Series 3 conclusion [2]: too sensitive to mechanical impact to allow transportation
